Data from patent US10206937B2, “Boronic acid derivatives and therapeutic uses thereof” (Qpex Biopharma, Inc., priority 2014, dated 2019).

System: strains of Enterobacteriaceae producing various carbapenemases (class A, D and B; 104 strains)
Experiment: Antibiotics potentiation by Compound 27 (MIC; meropenem, doripenem, ertapenem, cefepime)
Format: cell-based
Details: + 27 = with Compound 27 at fixed 4 μg/ml

## COc1ccc2c(c1C(=O)O)OB(O)C(Sc1nnc(N)s1)C2 (stereo not shown) [M + 27]
Strain CF1012 Citrobacter freundii (KPC-2)
  MIC: X (MIC of less than 1 μg/mL)
Strain CF1021 Citrobacter freundii (CMY-type; VIM-1)
  MIC: X (MIC of less than 1 μg/mL)
Strain CF1022 Citrobacter freundii (SHV-12(2be), TEM-OSBL(2b); IMP-8)
  MIC: X (MIC of less than 1 μg/mL)
Strain CF1023 Citrobacter freundii (SHV-12(2be), TEM-OSBL(2b); CTX-M-3; CMY-34; NDM-1)
  MIC: X (MIC of less than 1 μg/mL)
Strain CL1080 Enterobacter cloacae (IMP-1)
  MIC: X (MIC of less than 1 μg/mL)
Strain EA1019 Enterobacter aerogenes (SHV-5, VIM-1)
  MIC: X (MIC of less than 1 μg/mL)
Strain EC1007 Escherichia coli (KPC-3)
  MIC: X (MIC of less than 1 μg/mL)
Strain EC1061 Escherichia coli (NDM-1, CMY-6)
  MIC: X (MIC of less than 1 μg/mL)
Strain EC1062 Escherichia coli (OXA-48, CTX-M-15)
  MIC: X (MIC of less than 1 μg/mL)
Strain EC1064 Escherichia coli (NDM-1, CMY-6, CTX-M-15)
  MIC: Y (MIC of 1 μg/mL to 10 μg/mL)
Strain EC1065 Escherichia coli (IMP-1)
  MIC: X (MIC of less than 1 μg/mL)
Strain EC1068 Escherichia coli (VIM-1)
  MIC: X (MIC of less than 1 μg/mL)
Strain EC1069 Escherichia coli (CTX-M-27; NDM-1)
  MIC: X (MIC of less than 1 μg/mL)
Strain EC1070 Escherichia coli (TEM-OSBL(2b); CMY-42; NDM-5)
  MIC: X (MIC of less than 1 μg/mL)
Strain EC1072 Escherichia coli (CTX-M-3; NDM-1)
  MIC: X (MIC of less than 1 μg/mL)
Strain ECL1004 Enterobacter cloacae (NMC-A)
  MIC: X (MIC of less than 1 μg/mL)
Strain ECL1026 Enterobacter cloacae (KPC-2, TEM-1)
  MIC: X (MIC of less than 1 μg/mL)
Strain ECL1036 Enterobacter cloacae (KPC-3, TEM-1)
  MIC: X (MIC of less than 1 μg/mL)
Strain ECL1045 Enterobacter cloacae (VIM-1)
  MIC: X (MIC of less than 1 μg/mL)
Strain ECL1055 Enterobacter cloacae (KPC-3, TEM)
  MIC: X (MIC of less than 1 μg/mL)
Strain ECL1057 Enterobacter cloacae (NDM-1, TEM-1, CTX-M-15)
  MIC: Z (MIC of greater than 10 μg/mL)
Strain ECL1058 Enterobacter cloacae (KPC-3, SHV-11, TEM-1)
  MIC: X (MIC of less than 1 μg/mL)
Strain ECL1059 Enterobacter cloacae (KPC-3, SHV-12, TEM-1)
  MIC: X (MIC of less than 1 μg/mL)
Strain ECL1061 Enterobacter cloacae (KPC-3, Hyper AmpC expression)
  MIC: X (MIC of less than 1 μg/mL)
Strain ECL1082 Enterobacter cloacae (VIM-1)
  MIC: X (MIC of less than 1 μg/mL)
Strain ECL1084 Enterobacter cloacae (CTX-M-15; ACT-16; NDM-1)
  MIC: X (MIC of less than 1 μg/mL)
Strain ECL1085 Enterobacter cloacae (SHV-31(2be), TEM-1(2b); CTX-M-15; NDM-1)
  MIC: X (MIC of less than 1 μg/mL)
Strain ECL1086 Enterobacter cloacae (VIM-31, OXA-48(c))
  MIC: X (MIC of less than 1 μg/mL)
Strain ECL1087 Enterobacter cloacae (VIM-1)
  MIC: X (MIC of less than 1 μg/mL)
Strain ECL1088 Enterobacter cloacae (TEM-1(2b); CTX-M-14; ACT-type; VIM-1)
  MIC: X (MIC of less than 1 μg/mL)
Strain ECL1089 Enterobacter cloacae (ACT-type; IMP-1)
  MIC: Y (MIC of 1 μg/mL to 10 μg/mL)
Strain ECL1090 Enterobacter cloacae (TEM-1(2b); CTX-M-22; ACT-type; IMP-8)
  MIC: X (MIC of less than 1 μg/mL)
Strain ECL1091 Enterobacter cloacae (VIM-1)
  MIC: X (MIC of less than 1 μg/mL)
Strain ECL1092 Enterobacter cloacae (TEM-OSBL(2b); ACT-32; VIM-1)
  MIC: X (MIC of less than 1 μg/mL)
Strain ECL1093 Enterobacter cloacae (TEM-OSBL(2b); ACT-32; VIM-1)
  MIC: X (MIC of less than 1 μg/mL)
Strain ECL1094 Enterobacter cloacae (VIM-1)
  MIC: X (MIC of less than 1 μg/mL)
Strain ECL1096 Enterobacter cloacae (CMY-4, VIM-4, OXA-48(c))
  MIC: X (MIC of less than 1 μg/mL)
Strain ECL1097 Enterobacter cloacae (SHV-31(2be), TEM-OSBL(2b); CTX-M-15; ACT-31; NDM-1)
  MIC: X (MIC of less than 1 μg/mL)
Strain ECL1098 Enterobacter cloacae (TEM-OSBL(2b); DHA-1; ACT-16; NDM-1)
  MIC: X (MIC of less than 1 μg/mL)
Strain KP1001 Klebsiella pneumoniae (KPC TEM SHV)
  MIC: Y (MIC of 1 μg/mL to 10 μg/mL)
Strain KP1002 Klebsiella pneumoniae (KPC TEM SHV)
  MIC: X (MIC of less than 1 μg/mL)
Strain KP1003 Klebsiella pneumoniae (KPC TEM SHV)
  MIC: X (MIC of less than 1 μg/mL)
Strain KP1004 Klebsiella pneumoniae (KPC-2, TEM-1, SHV-11)
  MIC: X (MIC of less than 1 μg/mL)
Strain KP1008 Klebsiella pneumoniae (KPC-2)
  MIC: X (MIC of less than 1 μg/mL)
Strain KP1014 Klebsiella pneumoniae (VIM-1, TEM, SHV)
  MIC: X (MIC of less than 1 μg/mL)
Strain KP1054 Klebsiella pneumoniae (VIM-1, SHV-11)
  MIC: X (MIC of less than 1 μg/mL)
Strain KP1059 Klebsiella pneumoniae (VIM-1, SHV-11)
  MIC: Y (MIC of 1 μg/mL to 10 μg/mL)
Strain KP1061 Klebsiella pneumoniae (KPC-3, SHV-11, TEM-1)
  MIC: X (MIC of less than 1 μg/mL)
Strain KP1064 Klebsiella pneumoniae (KPC-2, SHV-11, TEM-1)
  MIC: Y (MIC of 1 μg/mL to 10 μg/mL)
Strain KP1065 Klebsiella pneumoniae (VIM-1, SHV-11)
  MIC: X (MIC of less than 1 μg/mL)
Strain KP1070 Klebsiella pneumoniae (KPC-2, SHV-11, TEM-1)
  MIC: X (MIC of less than 1 μg/mL)
Strain KP1074 Klebsiella pneumoniae (KPC-3, SHV-11, TEM)
  MIC: Z (MIC of greater than 10 μg/mL)
